Series [1] deals with apolipoprotein B mRNA. The series can be described thus: ob/ob mice (Example 50): apolipoprotein B mRNA levels in liver. In kind it is in vivo, mouse. The following applies: high fat high cholesterol diet, 50 mg/kg i.p. twice a week, six weeks. As to the method:
(§1) Ob/ob mice receiving a high fat, high cholesterol diet (60% kcal fat supplemented with 0.15% cholesterol) were treated with one of several oligonucleotides to evaluate their effect on apolipoprotein B-related phenotypic endpoints in ob/ob mice. After overnight fasting, mice from each group were dosed intraperitoneally twice a week with 50 mg/kg of ISIS 147483 (SEQ ID NO: 79), or 147764 (SEQ ID NO: 109), or the controls ISIS 116847 (SEQ ID NO: 857), or 141923 (SEQ ID NO: 858), or saline for six weeks. At study termination and forty eight hours after the final injections, animals were sacrificed and evaluated for target mRNA levels in liver, cholesterol and triglyceride levels, liver enzyme levels, serum glucose levels, and PTEN levels.

The nature of series [2]: ob/ob mice (Example 50): cholesterol, lipid, triglyceride, liver enzyme and glucose levels. The following applies: high fat high cholesterol diet, 50 mg/kg i.p. twice a week, six weeks. The format is in vivo, mouse. How it is done:
as §1

Series [3] deals with mouse apolipoprotein B mRNA. As to the kind of experiment: High fat fed mice (Example 65): mouse apolipoprotein B mRNA and serum cholesterol levels. The format is in vivo. How it is done: (§2) Male C57Bl/6 mice were divided into the following groups, consisting of 5 animals each: (1) mice on a lean diet, injected with saline (lean control); (2) mice on a high fat diet; (3) mice on a high fat diet injected with 50 mg/kg of the control oligonucleotide 141923 (SEQ ID NO: 858); (4) mice on a high fat diet given 20 mg/kg atorvastatin calcium (Lipitor®, Pfizer Inc.); (5) mice on a high fat diet injected with 10, 25 or 50 mg/kg ISIS 147764 (SEQ ID NO: 109). Saline and oligonucleotide treatments were administered intraperitoneally twice weekly for 6 weeks. Atorvastatin was administered daily for 6 weeks. At study termination, liver samples were isolated from each animal and RNA was isolated for Northern blot qualitative assessment, DNA microarray and quantitative real-time PCR. Northern blot assessment and quantitative real-time PCR were performed as described by other examples herein.
(§3) Mouse apolipoprotein B mRNA and serum cholesterol levels, measured as described herein, were evaluated to confirm antisense inhibition by ISIS 147764 and ISIS 147483. […] The 50 mg/kg dose of ISIS 147483 increased ALT and AST levels.

A short description of series [4]: High fat fed mice (Example 65): ALT and AST levels. The format is in vivo, mouse. As to the method:
as §2, §3

In series [5] the test system is apolipoprotein B mRNA. As to the kind of experiment: Lean mice, 6 weeks (Example 66): apolipoprotein B mRNA. In kind it is in vivo, mouse. As to the method: (§4) The accumulation of lipids in liver tissue was also evaluated in lean mice. Male […] mice (Charles River Laboratories (Wilmington, Mass.) at 6 to 7 weeks of age were maintained on a standard rodent diet and were treated twice weekly with intraperitoneal injections of 25 or 50 mg/kg 147764 (SEQ ID NO: 109) or 147483 (SEQ ID NO: 79) for 6 weeks. Saline treated animals served as controls. Each treatment group was comprised of 4 animals. Animals were sacrificed after the 6 week treatment period, at which point liver tissue and serum were collected.
Apolipoprotein B mRNA levels were measured by real-time PCR as described by other examples herein. The data, shown in Table 51, represent the average of 4 animals and are presented as inhibition relative to saline treated controls.

The nature of series [6]: Lean mice, 6 weeks (Example 66): serum lipids and liver enzymes. In kind it is in vivo, mouse. As to conditions: serum. How it is done: as §4
Total cholesterol, LDL-cholesterol, HDL-cholesterol and triglycerides in serum were measured by routine clinical analysis using an Olympus Clinical Analyzer (Olympus America Inc., Melville, N.Y.). The liver enzymes ALT and […] in serum were also measured using the Olympus Clinical Analyzer.

This is an account of results in patent US7803930B2, “Antisense modulation of apolipoprotein B-expression” (Isis Pharmaceuticals, Inc., priority 2002, dated 2010).

In the oligonucleotide strings, read from the 5' end, every base follows the letter of its sugar. An asterisk marks phosphorothioate; unmarked linkages are phosphodiester. Other units and linkages are bracketed, terminal groups are in braces. A string of capitals states the bases alone. e = 2'-O-(2-methoxyethyl) (MOE); [5mC] = 5-methylcytosine; d = 2'-deoxy (DNA)

Regarding “ATGTCAATGCCACATGTCCA (antisense eA*eT*eG*eT*e[5mC]*dA*dA*dT*dG*d[5mC]*d[5mC]*dA*d[5mC]*dA*dT*eG*eT*e[5mC]*e[5mC]*eA) [ISIS 147483]”, the “apolipoprotein B mRNA levels” value in the series on apolipoprotein B mRNA [1] is reported as “able to lower”. Besides, the “glucose, cholesterol, and triglyceride levels” value in series [2] was “able to lower”. The “mouse apolipoprotein B mRNA and serum cholesterol levels” value in series [3] was “lowered in a dose-dependent manner”. Further, the “ALT and AST levels” value in series [4] (50 mg/kg) is “increased”. Moreover, the “ALT or AST levels” value in series [4] (10 and 25 mg/kg) is recorded as “did not significantly elevate”. For the same sequence, the “% Inhibition apolipoprotein B mRNA” value in the series on apolipoprotein B mRNA [5] (25 mg/kg i.p. twice weekly) was 79%. Further, the “% Inhibition apolipoprotein B mRNA” value in the series with apolipoprotein B mRNA [5] (50 mg/kg i.p. twice weekly) was 91%. In the series on apolipoprotein B mRNA [5] (25 or 50 mg/kg i.p. twice weekly), the “inhibition of apolipoprotein B mRNA expression” value is recorded as “in a dose-dependent manner”. Moreover, in series [6] (25 mg/kg i.p. twice weekly), the HDL-cholesterol is 117 mg/dL, the LDL-cholesterol came out at 26 mg/dL, the “Liver Enzymes ALT” value was found to be 73 IU/L and the “Liver Enzymes AST” value was 78 IU/L. In series [6] (25 mg/kg i.p. twice weekly), this sequence returned a Total cholesterol of 153 mg/dL and a Triglycerides of 138 mg/dL. Besides, in series [6] (50 mg/kg i.p. twice weekly), the HDL-cholesterol is given as 131 mg/dL, the LDL-cholesterol came to 39 mg/dL, the “Liver Enzymes ALT” value worked out at 57 IU/L and the “Liver Enzymes AST” value stood at 72 IU/L. In series [6] (50 mg/kg i.p. twice weekly), the Total cholesterol worked out at 183 mg/dL and the Triglycerides is 127 mg/dL.
